The results in this text go back to ChEMBL document CHEMBL1909046, “DrugMatrix in vitro pharmacology data”.

Sequence of Melanocortin receptor 4 (P32245 whole entry): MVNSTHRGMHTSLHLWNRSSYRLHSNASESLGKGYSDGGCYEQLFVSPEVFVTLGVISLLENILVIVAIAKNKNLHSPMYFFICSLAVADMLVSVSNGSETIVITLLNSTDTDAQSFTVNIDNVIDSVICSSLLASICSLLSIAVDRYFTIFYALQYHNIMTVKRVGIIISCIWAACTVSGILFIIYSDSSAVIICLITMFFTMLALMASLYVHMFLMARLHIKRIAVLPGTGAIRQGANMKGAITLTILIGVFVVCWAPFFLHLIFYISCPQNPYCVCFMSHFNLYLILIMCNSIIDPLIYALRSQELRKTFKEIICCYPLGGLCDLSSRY
Sequence of Cytochrome P450 2E1 (P05181 whole entry): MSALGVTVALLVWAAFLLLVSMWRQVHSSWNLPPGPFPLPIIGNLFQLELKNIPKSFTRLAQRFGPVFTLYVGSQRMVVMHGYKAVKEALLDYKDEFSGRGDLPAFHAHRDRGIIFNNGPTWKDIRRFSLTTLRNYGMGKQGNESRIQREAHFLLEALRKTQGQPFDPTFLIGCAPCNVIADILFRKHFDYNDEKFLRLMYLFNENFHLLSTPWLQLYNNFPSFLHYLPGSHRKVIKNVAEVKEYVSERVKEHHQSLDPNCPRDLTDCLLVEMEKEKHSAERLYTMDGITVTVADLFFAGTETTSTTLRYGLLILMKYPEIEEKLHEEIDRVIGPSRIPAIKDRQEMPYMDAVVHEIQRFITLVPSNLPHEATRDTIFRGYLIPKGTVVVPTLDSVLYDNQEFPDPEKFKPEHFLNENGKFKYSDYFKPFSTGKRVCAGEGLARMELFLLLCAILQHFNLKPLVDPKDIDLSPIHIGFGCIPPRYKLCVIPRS

The target of the first data set is Receptor tyrosine-protein kinase erbB-2 (Homo sapiens, UniProt P04626). In words: biochemical. The settings on record: insect cells. Format: cell-based, Insect cells.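 Note: inhibition of HER2 kinase enzyme activity, measured with Poly(Glu:Tyr) as the phosphorylation substrate; in other assays of this panel Not Active means under 50% inhibition at 10 µM.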
Sequence of Receptor tyrosine-protein kinase erbB-2 (P04626 whole entry): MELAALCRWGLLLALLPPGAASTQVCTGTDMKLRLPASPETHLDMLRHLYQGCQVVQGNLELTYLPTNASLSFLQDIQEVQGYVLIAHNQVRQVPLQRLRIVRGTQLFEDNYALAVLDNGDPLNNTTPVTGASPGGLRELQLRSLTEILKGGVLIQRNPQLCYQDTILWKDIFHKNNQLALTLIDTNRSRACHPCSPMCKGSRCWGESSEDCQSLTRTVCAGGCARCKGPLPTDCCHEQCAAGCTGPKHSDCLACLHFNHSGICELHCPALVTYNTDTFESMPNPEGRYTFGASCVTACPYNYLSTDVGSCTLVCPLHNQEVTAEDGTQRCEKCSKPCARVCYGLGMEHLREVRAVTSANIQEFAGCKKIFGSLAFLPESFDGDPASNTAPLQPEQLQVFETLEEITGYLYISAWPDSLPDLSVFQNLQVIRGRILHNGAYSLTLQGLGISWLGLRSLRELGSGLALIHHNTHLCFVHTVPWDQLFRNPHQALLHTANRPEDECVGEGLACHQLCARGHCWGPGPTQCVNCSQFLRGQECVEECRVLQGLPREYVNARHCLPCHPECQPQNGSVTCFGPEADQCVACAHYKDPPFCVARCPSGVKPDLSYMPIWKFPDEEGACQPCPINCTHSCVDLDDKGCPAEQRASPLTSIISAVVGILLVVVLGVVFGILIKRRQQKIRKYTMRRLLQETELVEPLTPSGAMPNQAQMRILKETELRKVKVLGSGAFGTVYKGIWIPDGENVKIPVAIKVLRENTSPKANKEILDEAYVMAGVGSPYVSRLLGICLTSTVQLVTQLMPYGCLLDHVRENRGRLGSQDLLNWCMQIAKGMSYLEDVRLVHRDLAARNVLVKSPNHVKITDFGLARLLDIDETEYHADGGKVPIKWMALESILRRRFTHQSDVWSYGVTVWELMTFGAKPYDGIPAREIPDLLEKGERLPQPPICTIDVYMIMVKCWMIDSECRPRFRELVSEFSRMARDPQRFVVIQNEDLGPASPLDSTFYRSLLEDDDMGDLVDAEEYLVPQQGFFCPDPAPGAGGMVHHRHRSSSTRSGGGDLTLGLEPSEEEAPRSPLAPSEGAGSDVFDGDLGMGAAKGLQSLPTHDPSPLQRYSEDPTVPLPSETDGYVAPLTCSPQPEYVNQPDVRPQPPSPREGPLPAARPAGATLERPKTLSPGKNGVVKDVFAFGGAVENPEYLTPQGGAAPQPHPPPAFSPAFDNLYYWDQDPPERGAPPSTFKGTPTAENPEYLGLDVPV
As for `CCCC(=O)Nc1ccc(OCC(O)CNC(C)C)c(C(C)=O)c1` (stereo unspecified) [ACEBUTOLOL], the IC50 entry is given as “Not Active”.

For `COc1cc2c(c3oc(=O)c4c(c13)CCC4=O)[C@@H]1C=CO[C@@H]1O2` [AFLATOXIN], the IC50 entry is recorded as “Not Active” and the Ki result was “Not Active”.

`N=C(N)NC(=O)c1nc(Cl)c(N)nc1N` [AMILORIDE]: the IC50 entry was “Not Active”.

With `Cc1cc(=O)n(-c2ccccc2)n1C` [ANTIPYRINE], the IC50 result is “Not Active”.

`CN1C(=O)COc2c(C(=O)NC3CN4CCC3CC4)cc(Cl)cc21` (stereo unspecified) [AZASETRON]: the IC50 result is “Not Active”.

The next data set deals with T1, Estrogen receptor (Homo sapiens, UniProt P03372).
T1 sequence (P03372 whole entry): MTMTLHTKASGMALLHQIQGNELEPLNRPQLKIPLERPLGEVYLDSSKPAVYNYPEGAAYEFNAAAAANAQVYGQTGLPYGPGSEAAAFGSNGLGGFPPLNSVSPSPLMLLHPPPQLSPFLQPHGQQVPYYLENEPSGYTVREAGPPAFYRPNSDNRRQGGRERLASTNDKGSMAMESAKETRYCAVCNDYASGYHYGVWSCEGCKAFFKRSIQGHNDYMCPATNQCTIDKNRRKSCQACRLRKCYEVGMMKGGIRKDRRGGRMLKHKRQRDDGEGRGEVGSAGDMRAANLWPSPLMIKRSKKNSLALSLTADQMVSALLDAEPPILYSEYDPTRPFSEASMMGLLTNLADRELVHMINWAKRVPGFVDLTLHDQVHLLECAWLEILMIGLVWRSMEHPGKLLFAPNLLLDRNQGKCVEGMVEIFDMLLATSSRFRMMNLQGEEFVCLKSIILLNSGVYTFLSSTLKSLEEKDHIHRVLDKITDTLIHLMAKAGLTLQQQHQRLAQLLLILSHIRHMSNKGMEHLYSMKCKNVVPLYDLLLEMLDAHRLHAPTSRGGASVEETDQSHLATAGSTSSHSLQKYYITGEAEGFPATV
Experiment: not given
The settings on record: sf9.
Regarding `CCCC(=O)Nc1ccc(OCC(O)CNC(C)C)c(C(C)=O)c1` (stereo unspecified) [ACEBUTOLOL], the IC50 entry is recorded as “Not Active”.

For the compound `COc1cc2c(c3oc(=O)c4c(c13)CCC4=O)[C@@H]1C=CO[C@@H]1O2` [AFLATOXIN], the IC50 entry was “Not Active” and the Ki entry is reported as “Not Active”.

Regarding `N=C(N)NC(=O)c1nc(Cl)c(N)nc1N` [AMILORIDE], the IC50 result was “Not Active”.

Take `Cc1cc(=O)n(-c2ccccc2)n1C` [ANTIPYRINE]: the IC50 entry is reported as “Not Active”.

Regarding `CN1C(=O)COc2c(C(=O)NC3CN4CCC3CC4)cc(Cl)cc21` (stereo unspecified) [AZASETRON], the IC50 entry is “Not Active”.

Test system in the next data set: not listed separately
In words: DRUGMATRIX: GABAA, Chloride Channel, TBOB radioligand binding (ligand: [3H] TBOB). In kind it is cell membranes, Rattus norvegicus, Wistar, Cerebral cortex, Membrane. The settings on record: Not Active = under 50% inhibition at 10 µM.
With `CCCC(=O)Nc1ccc(OCC(O)CNC(C)C)c(C(C)=O)c1` (stereo unspecified) [ACEBUTOLOL], the IC50 result was “Not Active” and the Ki entry is given as “Not Active”.

As for `COc1cc2c(c3oc(=O)c4c(c13)CCC4=O)[C@@H]1C=CO[C@@H]1O2` [AFLATOXIN], the IC50 result is listed as “Not Active” and the Ki result is “Not Active”.

As for `N=C(N)NC(=O)c1nc(Cl)c(N)nc1N` [AMILORIDE], the IC50 entry was “Not Active” and the Ki entry was “Not Active”.

As to `Cc1cc(=O)n(-c2ccccc2)n1C` [ANTIPYRINE], the IC50 result is “Not Active” and the Ki entry is reported as “Not Active”.

As for `CN1C(=O)COc2c(C(=O)NC3CN4CCC3CC4)cc(Cl)cc21` (stereo unspecified) [AZASETRON], the IC50 entry is “Not Active” and the Ki entry is reported as “Not Active”.

A further data set has as its target Melanocortin receptor 4 (Homo sapiens, UniProt P32245). Note: in other assays of this panel Not Active means under 50% inhibition at 10 µM.
Experiment: not given
The conditions noted are these: hek293. Format: cell membranes, Membrane.
As to `CCCC(=O)Nc1ccc(OCC(O)CNC(C)C)c(C(C)=O)c1` (stereo unspecified) [ACEBUTOLOL], the IC50 entry was “Not Active”.

Consider `COc1cc2c(c3oc(=O)c4c(c13)CCC4=O)[C@@H]1C=CO[C@@H]1O2` [AFLATOXIN], for which the IC50 entry is listed as “Not Active” and the Ki entry is “Not Active”.

For the compound `N=C(N)NC(=O)c1nc(Cl)c(N)nc1N` [AMILORIDE], the IC50 entry is reported as “Not Active”.

For the compound `Cc1cc(=O)n(-c2ccccc2)n1C` [ANTIPYRINE], the IC50 result was “Not Active”.

For `CN1C(=O)COc2c(C(=O)NC3CN4CCC3CC4)cc(Cl)cc21` (stereo unspecified) [AZASETRON], the IC50 result is recorded as “Not Active”.

Test system in a further data set: not listed separately
The experiment in a line: DRUGMATRIX: Phosphodiesterase PDE3 enzyme inhibition (substrate: [3H]cAMP + cAMP). Format: tissue-based, Homo sapiens. The settings on record: platelet; Not Active = under 50% inhibition at 10 µM.
With `CCCC(=O)Nc1ccc(OCC(O)CNC(C)C)c(C(C)=O)c1` (stereo unspecified) [ACEBUTOLOL], the IC50 result is “Not Active” and the Ki result is reported as “Not Active”.

For `COc1cc2c(c3oc(=O)c4c(c13)CCC4=O)[C@@H]1C=CO[C@@H]1O2` [AFLATOXIN], the IC50 entry is “Not Active” and the Ki result is given as “Not Active”.

`N=C(N)NC(=O)c1nc(Cl)c(N)nc1N` [AMILORIDE]: the IC50 entry is given as “Not Active” and the Ki entry is recorded as “Not Active”.

Take `Cc1cc(=O)n(-c2ccccc2)n1C` [ANTIPYRINE]: the IC50 entry was “Not Active” and the Ki entry was “Not Active”.

Consider `CN1C(=O)COc2c(C(=O)NC3CN4CCC3CC4)cc(Cl)cc21` (stereo unspecified) [AZASETRON], for which the IC50 result is recorded as “Not Active” and the Ki result was “Not Active”.

A further data set addresses Cytochrome P450 2E1 (Homo sapiens, UniProt P05181).
Experiment: not given
The conditions noted are these: bti-tn-5b1-4.
On to `CCCC(=O)Nc1ccc(OCC(O)CNC(C)C)c(C(C)=O)c1` (stereo unspecified) [ACEBUTOLOL], for which the IC50 entry is “Not Active” and the Ki result is given as “Not Active”.

As for `COc1cc2c(c3oc(=O)c4c(c13)CCC4=O)[C@@H]1C=CO[C@@H]1O2` [AFLATOXIN], the IC50 result is on record as “Not Active” and the Ki result is listed as “Not Active”.

Take `N=C(N)NC(=O)c1nc(Cl)c(N)nc1N` [AMILORIDE]: the IC50 result was “Not Active” and the Ki result is recorded as “Not Active”.

Take `Cc1cc(=O)n(-c2ccccc2)n1C` [ANTIPYRINE]: the IC50 result is reported as “Not Active” and the Ki result is “Not Active”.

In the case of `CN1C(=O)COc2c(C(=O)NC3CN4CCC3CC4)cc(Cl)cc21` (stereo unspecified) [AZASETRON], the IC50 result is listed as “Not Active” and the Ki result is “Not Active”.

For the next data set, the target named is Insulin receptor (Rattus norvegicus, UniProt P15127). Note: in other assays of this panel Not Active means under 50% inhibition at 10 µM.
Sequence of Insulin receptor (P15127 27-759 limits assumed): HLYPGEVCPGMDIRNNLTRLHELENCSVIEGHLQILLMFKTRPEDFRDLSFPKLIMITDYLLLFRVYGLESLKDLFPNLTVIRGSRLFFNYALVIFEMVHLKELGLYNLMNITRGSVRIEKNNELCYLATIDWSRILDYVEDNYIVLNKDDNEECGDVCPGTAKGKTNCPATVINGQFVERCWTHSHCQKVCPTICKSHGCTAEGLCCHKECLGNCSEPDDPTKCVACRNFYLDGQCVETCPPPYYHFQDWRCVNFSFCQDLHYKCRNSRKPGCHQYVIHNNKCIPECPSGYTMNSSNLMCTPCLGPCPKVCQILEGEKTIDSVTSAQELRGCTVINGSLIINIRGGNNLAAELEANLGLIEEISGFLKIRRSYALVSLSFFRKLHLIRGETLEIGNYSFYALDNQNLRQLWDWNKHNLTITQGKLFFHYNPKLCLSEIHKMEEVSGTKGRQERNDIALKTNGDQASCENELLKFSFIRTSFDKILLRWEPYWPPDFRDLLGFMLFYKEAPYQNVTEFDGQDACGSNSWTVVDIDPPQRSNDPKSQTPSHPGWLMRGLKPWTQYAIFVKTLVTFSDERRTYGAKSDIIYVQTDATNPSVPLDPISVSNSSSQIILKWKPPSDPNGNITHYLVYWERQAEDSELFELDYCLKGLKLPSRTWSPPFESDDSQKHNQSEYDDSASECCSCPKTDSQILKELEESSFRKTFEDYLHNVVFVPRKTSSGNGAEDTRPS
Sequence of Insulin receptor (P15127 764-1383 limits assumed): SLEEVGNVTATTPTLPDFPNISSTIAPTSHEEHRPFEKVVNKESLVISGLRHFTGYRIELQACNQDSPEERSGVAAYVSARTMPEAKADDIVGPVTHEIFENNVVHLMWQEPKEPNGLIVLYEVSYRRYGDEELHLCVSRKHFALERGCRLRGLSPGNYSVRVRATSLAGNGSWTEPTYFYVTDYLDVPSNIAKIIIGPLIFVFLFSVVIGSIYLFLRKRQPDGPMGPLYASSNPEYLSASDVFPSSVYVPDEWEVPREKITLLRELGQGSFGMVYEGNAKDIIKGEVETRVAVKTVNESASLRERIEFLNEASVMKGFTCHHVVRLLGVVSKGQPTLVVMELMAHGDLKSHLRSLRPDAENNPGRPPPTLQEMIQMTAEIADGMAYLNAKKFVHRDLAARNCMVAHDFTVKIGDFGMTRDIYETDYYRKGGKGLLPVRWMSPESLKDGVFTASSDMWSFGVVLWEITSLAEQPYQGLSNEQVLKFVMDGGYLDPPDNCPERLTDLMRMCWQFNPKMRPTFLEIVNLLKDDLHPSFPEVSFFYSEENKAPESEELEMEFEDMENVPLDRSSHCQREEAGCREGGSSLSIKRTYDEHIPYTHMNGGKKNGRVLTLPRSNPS
Experiment: not given
In kind it is cell membranes, Wistar, Liver, Membrane.
Details: not given
As to `CCCC(=O)Nc1ccc(OCC(O)CNC(C)C)c(C(C)=O)c1` (stereo unspecified) [ACEBUTOLOL], the IC50 result is “Not Active”.

As for `COc1cc2c(c3oc(=O)c4c(c13)CCC4=O)[C@@H]1C=CO[C@@H]1O2` [AFLATOXIN], the IC50 entry is “Not Active” and the Ki entry was “Not Active”.

As to `N=C(N)NC(=O)c1nc(Cl)c(N)nc1N` [AMILORIDE], the IC50 entry is recorded as “Not Active”.

For `Cc1cc(=O)n(-c2ccccc2)n1C` [ANTIPYRINE], the IC50 entry is “Not Active”.

On to `CN1C(=O)COc2c(C(=O)NC3CN4CCC3CC4)cc(Cl)cc21` (stereo unspecified) [AZASETRON], for which the IC50 entry was “Not Active”.

For another data set, the target named is T2, Receptor-type tyrosine-protein phosphatase C (Homo sapiens, UniProt P08575).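 Note: inhibition of CD45 enzyme activity measured using DiFMUP as substrate; in other assays of this panel Not Active means under 50% inhibition at 10 µM.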
T2 sequence (P08575 whole entry): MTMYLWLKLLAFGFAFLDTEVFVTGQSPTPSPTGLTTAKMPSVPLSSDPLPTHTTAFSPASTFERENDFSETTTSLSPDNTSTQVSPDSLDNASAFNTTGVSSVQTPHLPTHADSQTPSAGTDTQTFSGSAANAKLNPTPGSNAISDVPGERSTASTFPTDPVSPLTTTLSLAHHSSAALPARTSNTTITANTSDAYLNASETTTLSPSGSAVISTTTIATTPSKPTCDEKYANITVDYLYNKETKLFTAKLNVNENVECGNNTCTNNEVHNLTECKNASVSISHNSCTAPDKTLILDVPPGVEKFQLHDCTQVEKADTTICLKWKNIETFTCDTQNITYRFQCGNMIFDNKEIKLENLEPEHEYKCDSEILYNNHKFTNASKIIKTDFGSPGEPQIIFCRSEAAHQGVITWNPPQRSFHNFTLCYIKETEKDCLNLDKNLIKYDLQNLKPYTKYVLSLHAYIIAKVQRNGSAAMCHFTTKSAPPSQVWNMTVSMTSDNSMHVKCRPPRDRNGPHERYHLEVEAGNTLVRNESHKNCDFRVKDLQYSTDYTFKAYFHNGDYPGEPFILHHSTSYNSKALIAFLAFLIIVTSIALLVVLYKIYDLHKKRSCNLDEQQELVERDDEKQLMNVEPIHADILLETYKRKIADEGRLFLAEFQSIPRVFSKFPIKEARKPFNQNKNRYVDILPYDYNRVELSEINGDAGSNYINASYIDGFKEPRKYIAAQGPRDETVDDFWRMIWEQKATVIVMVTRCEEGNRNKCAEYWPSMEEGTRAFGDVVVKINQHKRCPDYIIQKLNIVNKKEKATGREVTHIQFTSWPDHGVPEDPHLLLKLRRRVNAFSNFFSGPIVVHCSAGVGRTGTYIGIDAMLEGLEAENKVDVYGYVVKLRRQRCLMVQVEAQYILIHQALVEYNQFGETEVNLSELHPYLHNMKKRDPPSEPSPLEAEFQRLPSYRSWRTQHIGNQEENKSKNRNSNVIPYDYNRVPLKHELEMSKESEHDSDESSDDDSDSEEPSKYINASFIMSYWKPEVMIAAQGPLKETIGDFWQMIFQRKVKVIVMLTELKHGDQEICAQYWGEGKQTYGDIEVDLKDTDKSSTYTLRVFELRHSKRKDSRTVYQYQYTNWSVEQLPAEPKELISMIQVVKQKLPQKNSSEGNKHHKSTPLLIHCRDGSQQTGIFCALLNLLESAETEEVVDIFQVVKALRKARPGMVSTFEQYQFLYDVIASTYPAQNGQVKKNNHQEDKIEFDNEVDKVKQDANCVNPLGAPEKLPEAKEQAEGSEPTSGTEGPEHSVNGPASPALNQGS
Experiment: not given
Also noted: species or system Escherichia coli.
Details: not given
With `CCCC(=O)Nc1ccc(OCC(O)CNC(C)C)c(C(C)=O)c1` (stereo unspecified) [ACEBUTOLOL], the IC50 entry is on record as “Not Active”.

With `COc1cc2c(c3oc(=O)c4c(c13)CCC4=O)[C@@H]1C=CO[C@@H]1O2` [AFLATOXIN], the IC50 entry was “Not Active” and the Ki result was “Not Active”.

Turning to `N=C(N)NC(=O)c1nc(Cl)c(N)nc1N` [AMILORIDE], the IC50 result is given as “Not Active”.

In the case of `Cc1cc(=O)n(-c2ccccc2)n1C` [ANTIPYRINE], the IC50 result was “Not Active”.

Turning to `CN1C(=O)COc2c(C(=O)NC3CN4CCC3CC4)cc(Cl)cc21` (stereo unspecified) [AZASETRON], the IC50 entry is reported as “Not Active”.

The target of another data set is T3, C-X-C chemokine receptor type 2 (Homo sapiens, UniProt P25025). Note: in other assays of this panel Not Active means under 50% inhibition at 10 µM.
T3 sequence (P25025 whole entry): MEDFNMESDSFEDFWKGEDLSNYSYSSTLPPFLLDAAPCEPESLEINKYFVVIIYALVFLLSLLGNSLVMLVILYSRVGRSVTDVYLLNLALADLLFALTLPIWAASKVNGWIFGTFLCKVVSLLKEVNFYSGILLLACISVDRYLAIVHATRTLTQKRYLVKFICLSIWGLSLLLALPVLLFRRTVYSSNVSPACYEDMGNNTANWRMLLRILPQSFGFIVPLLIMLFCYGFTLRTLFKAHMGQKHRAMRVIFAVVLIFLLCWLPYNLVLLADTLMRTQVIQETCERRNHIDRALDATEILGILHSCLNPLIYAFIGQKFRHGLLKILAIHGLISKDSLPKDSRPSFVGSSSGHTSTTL
Experiment: not given
Format: cell membranes, Membrane. The settings on record: cho-k1.
Consider `CCCC(=O)Nc1ccc(OCC(O)CNC(C)C)c(C(C)=O)c1` (stereo unspecified) [ACEBUTOLOL], for which the IC50 result was “Not Active”.

Take `COc1cc2c(c3oc(=O)c4c(c13)CCC4=O)[C@@H]1C=CO[C@@H]1O2` [AFLATOXIN]: the IC50 entry is “Not Active” and the Ki entry is given as “Not Active”.

For `N=C(N)NC(=O)c1nc(Cl)c(N)nc1N` [AMILORIDE], the IC50 entry is on record as “Not Active”.

Turning to `Cc1cc(=O)n(-c2ccccc2)n1C` [ANTIPYRINE], the IC50 entry is “Not Active”.

Regarding `CN1C(=O)COc2c(C(=O)NC3CN4CCC3CC4)cc(Cl)cc21` (stereo unspecified) [AZASETRON], the IC50 result is reported as “Not Active”.
